From US11236129B2, “IL-17A binding peptides and medical uses thereof” (Dompe' Farmaceutici S.P.A., priority 2018, dated 2022)
Residues, ends and D or L forms follow the SMILES beside them.

What follows are compounds tested against IL-17RA/IL17RC dimerization induced by IL-17A (Homo sapiens, UniProt Q16552) (assay: IL-17RA/IL17RC dimerization assay in response to IL-17A (PathHunter Cytokine Receptor Assay)). Conditions: IL-17A at EC80; read-out: IC50 in IL-17RA/IL7RC dimerization assay.
Format: cell-based
How it was run: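 Receptor dimerization was read as chemiluminescence from complemented β-galactosidase after IL-17A at EC80 concentration for 6–16 h at 37 °C. Peptides were added 60 min before agonist, at 37 °C or room temperature, with 1% vehicle. Percent inhibition used the EC80-stimulated and vehicle wells as references.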

IL-17RA/IL17RC dimerization induced by IL-17A, sequence (Q16552 24-155): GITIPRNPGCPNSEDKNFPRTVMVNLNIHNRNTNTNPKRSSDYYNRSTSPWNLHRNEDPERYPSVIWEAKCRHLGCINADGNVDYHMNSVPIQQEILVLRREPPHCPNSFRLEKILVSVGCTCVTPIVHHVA

IC50 | Structure (SMILES)
< 10 µM | CC(=O)N[C@H](C(=O)N[C@@H](CCC(=O)O)C(=O)N[C@@H](Cc1ccccc1)C(=O)N[C@@H](CC(N)=O)C(=O)N[C@@H](Cc1ccccc1)C(=O)N1CCC[C@H]1C(=O)N[C@@H](CCC(N)=O)C(=O)N[C@@H](CCC(N)=O)C(=O)N[C@H](C(=O)N[C@@H](Cc1ccc(O)cc1)C(=O)N[C@@H](CCC(=O)O)C(=O)N[C@@H](Cc1c[nH]c2ccccc12)C(=O)N[C@H](C(=O)N[C@@H](CCCNC(=N)N)C(=O)N[C@@H](CCCNC(=N)N)C(N)=O)C(C)C)C(C)C)C(C)C [SEQ ID NO: 256] (Ac-VEFNFPQQVYEWVRR-NH2)
< 10 µM | CC[C@H](C)[C@H](NC(C)=O)C(=O)N[C@@H](Cc1c[nH]cn1)C(=O)N[C@H](C(=O)N[C@H](C(=O)N[C@H](C(=O)N1CCC[C@H]1C(=O)N[C@@H](C)C(=O)N[C@@H](CC(=O)O)C(=O)N[C@@H](CC(C)C)C(=O)N[C@@H](Cc1c[nH]c2ccccc12)C(=O)N[C@@H](CC(=O)O)C(=O)N[C@@H](Cc1ccc(O)cc1)C(=O)N[C@H](C(=O)N[C@@H](CC(N)=O)C(=O)N[C@@H](CCCCN)C(N)=O)[C@@H](C)CC)[C@@H](C)CC)[C@@H](C)O)C(C)C [SEQ ID NO: 211] (Ac-IHVTIPADLWDYINK-NH2)
< 0.5 µM | CC(=O)N[C@H](C(=O)N[C@@H](Cc1c[nH]cn1)C(=O)N[C@@H](Cc1ccccc1)C(=O)N[C@@H](CCC(N)=O)C(=O)N[C@@H](Cc1ccccc1)C(=O)N1CCC[C@H]1C(=O)N[C@@H](C)C(=O)N[C@@H](CC(=O)O)C(=O)N[C@@H](CC(C)C)C(=O)N[C@@H](Cc1ccc(O)cc1)C(=O)N[C@@H](CCC(=O)O)C(=O)N[C@@H](Cc1c[nH]c2ccccc12)C(=O)N[C@H](C(=O)N[C@@H](CCCNC(=N)N)C(=O)N[C@@H](CCCNC(=N)N)C(N)=O)C(C)C)C(C)C [SEQ ID NO: 132] (Ac-VHFQFPADLYEWVRR-NH2)
< 0.5 µM | CC(=O)N[C@H](C(=O)N[C@@H](CCCNC(=N)N)C(=O)N[C@@H](Cc1ccccc1)C(=O)N[C@@H](CCC(N)=O)C(=O)N[C@@H](Cc1ccccc1)C(=O)NCC(=O)N[C@@H](CCC(N)=O)C(=O)N[C@@H](CCC(=O)O)C(=O)N[C@@H](Cc1c[nH]c2ccccc12)C(=O)N[C@@H](Cc1ccc(O)cc1)C(=O)N[C@@H](CC(N)=O)C(=O)N[C@@H](Cc1ccccc1)C(=O)N[C@@H](Cc1ccccc1)C(=O)N[C@@H](CCCNC(=N)N)C(=O)N[C@@H](CCCNC(=N)N)C(N)=O)C(C)C [SEQ ID NO: 155] (Ac-VRFQFGQEWYNFFRR-NH2)
< 10 µM | CC[C@H](C)[C@H](NC(C)=O)C(=O)N[C@@H](Cc1c[nH]cn1)C(=O)N[C@H](C(=O)N[C@H](C(=O)N[C@H](C(=O)N1CCC[C@H]1C(=O)NCC(=O)N[C@@H](CC(=O)O)C(=O)N[C@@H](CC(C)C)C(=O)N[C@@H](Cc1c[nH]c2ccccc12)C(=O)N[C@@H](CC(=O)O)C(=O)N[C@@H](Cc1c[nH]c2ccccc12)C(=O)N[C@H](C(=O)N[C@@H](CC(N)=O)C(=O)N[C@@H](CCCCN)C(N)=O)[C@@H](C)CC)[C@@H](C)CC)[C@@H](C)O)C(C)C [SEQ ID NO: 192] (Ac-IHVTIPGDLWDWINK-NH2)
< 0.5 µM | CC(=O)N[C@H](C(=O)N[C@@H](Cc1c[nH]cn1)C(=O)N[C@@H](Cc1ccccc1)C(=O)N[C@H](C(=O)N[C@@H](Cc1ccccc1)C(=O)N1CCC[C@H]1C(=O)N[C@@H](CCC(N)=O)C(=O)N[C@@H](CC(=O)O)C(=O)N[C@@H](Cc1ccccc1)C(=O)N[C@@H](Cc1c[nH]c2ccccc12)C(=O)N[C@@H](CCC(=O)O)C(=O)N[C@@H](Cc1c[nH]c2ccccc12)C(=O)N[C@H](C(=O)N[C@@H](CCCNC(=N)N)C(=O)N[C@@H](CCCNC(=N)N)C(N)=O)C(C)C)[C@@H](C)O)C(C)C [SEQ ID NO: 125] (Ac-VHFTFPQDFWEWVRR-NH2)
< 10 µM | CC(=O)N[C@H](C(=O)N[C@@H](Cc1c[nH]cn1)C(=O)N[C@@H](Cc1ccccc1)C(=O)N[C@H](C(=O)N[C@H](C(=O)N1CCC[C@H]1C(=O)N[C@@H](CCC(N)=O)C(=O)N[C@@H](CCC(=O)O)C(=O)N[C@@H](CC(C)C)C(=O)N[C@@H](Cc1ccc(O)cc1)C(=O)N[C@@H](CCC(=O)O)C(=O)N[C@@H](Cc1c[nH]c2ccccc12)C(=O)N[C@H](C(=O)N[C@@H](CCCNC(=N)N)C(=O)N[C@@H](CCCNC(=N)N)C(N)=O)C(C)C)C(C)C)[C@@H](C)O)C(C)C [SEQ ID NO: 238] (Ac-VHFTVPQELYEWVRR-NH2)
< 0.5 µM | CC[C@H](C)[C@H](NC(=O)[C@H](CCC(N)=O)NC(=O)[C@H](Cc1ccccc1)NC(=O)[C@H](Cc1c[nH]cn1)NC(=O)[C@@H](NC(C)=O)C(C)C)C(=O)N1CCC[C@H]1C(=O)N[C@@H](CCC(N)=O)C(=O)N[C@@H](CC(=O)O)C(=O)N[C@@H](CC(C)C)C(=O)N[C@@H](Cc1ccc(O)cc1)C(=O)N[C@@H](CC(N)=O)C(=O)N[C@@H](Cc1ccccc1)C(=O)N[C@@H](Cc1ccccc1)C(=O)N[C@@H](CCCNC(=N)N)C(=O)N[C@@H](CCCNC(=N)N)C(N)=O [SEQ ID NO: 153] (Ac-VHFQIPQDLYNFFRR-NH2)
< 0.5 µM | CC(=O)N[C@H](C(=O)N[C@@H](Cc1c[nH]cn1)C(=O)N[C@@H](Cc1ccccc1)C(=O)N[C@H](C(=O)N[C@@H](Cc1ccccc1)C(=O)N1CCC[C@H]1C(=O)N[C@@H](CCC(N)=O)C(=O)N[C@@H](CC(=O)O)C(=O)N[C@@H](CC(C)C)C(=O)N[C@@H](Cc1c[nH]c2ccccc12)C(=O)N[C@@H](CC(N)=O)C(=O)N[C@@H](Cc1c[nH]c2ccccc12)C(=O)N[C@H](C(=O)N[C@@H](CCCNC(=N)N)C(=O)N[C@@H](CCCNC(=N)N)C(N)=O)C(C)C)[C@@H](C)O)C(C)C [SEQ ID NO: 127] (Ac-VHFTFPQDLWNWVRR-NH2)
< 10 µM | CC[C@H](C)[C@H](NC(=O)[C@H](CCC(=O)O)NC(=O)[C@H](CCC(N)=O)NC(=O)[C@@H]1CCCN1C(=O)[C@@H](NC(=O)[C@@H](NC(=O)[C@@H](NC(=O)[C@H](Cc1c[nH]cn1)NC(=O)[C@@H](NC(C)=O)C(C)C)C(C)C)[C@@H](C)O)[C@@H](C)CC)C(=O)N[C@@H](Cc1c[nH]c2ccccc12)C(=O)N[C@@H](CCC(=O)O)C(=O)N[C@@H](Cc1c[nH]c2ccccc12)C(=O)N[C@H](C(=O)N[C@@H](CCCNC(=N)N)C(=O)N[C@@H](CCCNC(=N)N)C(N)=O)C(C)C [SEQ ID NO: 237] (Ac-VHVTIPQEIWEWVRR-NH2)
< 0.5 µM | CC[C@H](C)[C@H](NC(=O)[C@H](CCC(N)=O)NC(=O)[C@H](Cc1ccccc1)NC(=O)[C@H](Cc1c[nH]cn1)NC(=O)[C@@H](NC(C)=O)C(C)C)C(=O)N1CCC[C@H]1C(=O)N[C@@H](CCC(N)=O)C(=O)N[C@@H](CC(=O)O)C(=O)N[C@@H](Cc1c[nH]c2ccccc12)C(=O)N[C@@H](Cc1c[nH]c2ccccc12)C(=O)N[C@@H](CCC(=O)O)C(=O)N[C@@H](Cc1c[nH]c2ccccc12)C(=O)N[C@H](C(=O)N[C@@H](CCCNC(=N)N)C(=O)N[C@@H](CCCNC(=N)N)C(N)=O)C(C)C [SEQ ID NO: 137] (Ac-VHFQIPQDWWEWVRR-NH2)
< 0.5 µM | CC[C@H](C)[C@H](NC(=O)[C@@H](NC(=O)[C@@H](NC(=O)[C@H](Cc1c[nH]cn1)NC(=O)[C@@H](NC(C)=O)C(C)C)C(C)C)[C@@H](C)O)C(=O)N1CCC[C@H]1C(=O)N[C@@H](C)C(=O)N[C@@H](CCC(=O)O)C(=O)N[C@@H](Cc1c[nH]c2ccccc12)C(=O)N[C@@H](Cc1c[nH]c2ccccc12)C(=O)N[C@@H](CCC(=O)O)C(=O)N[C@@H](Cc1c[nH]c2ccccc12)C(=O)N[C@H](C(=O)N[C@@H](CCCNC(=N)N)C(=O)N[C@@H](CCCNC(=N)N)C(N)=O)C(C)C [SEQ ID NO: 123] (Ac-VHVTIPAEWWEWVRR-NH2)
< 10 µM | CC[C@H](C)[C@H](NC(C)=O)C(=O)N[C@@H](CCC(N)=O)C(=O)N[C@H](C(=O)N[C@H](C(=O)N[C@H](C(=O)N1CCC[C@H]1C(=O)N[C@@H](C)C(=O)N[C@@H](CC(=O)O)C(=O)N[C@@H](CC(C)C)C(=O)N[C@@H](Cc1c[nH]c2ccccc12)C(=O)N[C@@H](CC(=O)O)C(=O)N[C@@H](Cc1c[nH]c2ccccc12)C(=O)N[C@H](C(=O)N[C@@H](CC(N)=O)C(=O)N[C@@H](CCCCN)C(N)=O)[C@@H](C)CC)[C@@H](C)CC)[C@@H](C)O)C(C)C [SEQ ID NO: 165] (Ac-IQVTIPADLWDWINK-NH2)
< 10 µM | CC[C@H](C)[C@H](NC(C)=O)C(=O)N[C@@H](Cc1c[nH]cn1)C(=O)N[C@H](C(=O)N[C@H](C(=O)N[C@H](C(=O)N1CCC[C@H]1C(=O)N[C@@H](CC(C)C)C(=O)N[C@@H](CCC(=O)O)C(=O)N[C@H](C(=O)N[C@@H](Cc1ccccc1)C(=O)N[C@@H](CCC(=O)O)C(=O)N[C@@H](Cc1c[nH]c2ccccc12)C(=O)N[C@@H](CC(C)C)C(=O)N[C@@H](CCC(N)=O)C(=O)N[C@@H](CCCNC(=N)N)C(N)=O)[C@@H](C)CC)[C@@H](C)CC)[C@@H](C)O)C(C)C [SEQ ID NO: 248] (Ac-IHVTIPLEIFEWLQR-NH2)
< 10 µM | CC[C@H](C)[C@H](NC(C)=O)C(=O)N[C@@H](Cc1c[nH]cn1)C(=O)N[C@@H](Cc1c[nH]c2ccccc12)C(=O)N[C@H](C(=O)N[C@H](C(=O)N1CCC[C@H]1C(=O)N[C@@H](C)C(=O)N[C@@H](CC(=O)O)C(=O)N[C@@H](CC(C)C)C(=O)N[C@@H](Cc1c[nH]c2ccccc12)C(=O)N[C@@H](CC(=O)O)C(=O)N[C@@H](Cc1c[nH]c2ccccc12)C(=O)N[C@H](C(=O)N[C@@H](CC(N)=O)C(=O)N[C@@H](CCCCN)C(N)=O)[C@@H](C)CC)[C@@H](C)CC)[C@@H](C)O [SEQ ID NO: 173] (Ac-IHWTIPADLWDWINK-NH2)
< 0.5 µM | CC(=O)N[C@H](C(=O)N[C@@H](Cc1c[nH]cn1)C(=O)N[C@@H](Cc1ccccc1)C(=O)N[C@H](C(=O)N[C@@H](Cc1ccccc1)C(=O)N1CCC[C@H]1C(=O)N[C@@H](CCC(N)=O)C(=O)N[C@@H](CC(=O)O)C(=O)N[C@@H](CC(C)C)C(=O)N[C@@H](Cc1c[nH]c2ccccc12)C(=O)N[C@@H](CCC(=O)O)C(=O)N[C@@H](Cc1c[nH]c2ccccc12)C(=O)N[C@H](C(=O)N[C@@H](CCCNC(=N)N)C(=O)N[C@@H](CCCNC(=N)N)C(N)=O)C(C)C)[C@@H](C)O)C(C)C [SEQ ID NO: 124] (Ac-VHFTFPQDLWEWVRR-NH2)
